Tests used:
[1] = critical micelle concentration (CMC), pyrene fluorescent method; assay type: physicochemical; conditions: aqueous solution, 37 °C, 3 h
Protocol: The critical micelle concentration (CMC) is an important solution property of any amphiphilic compound and can be defined as the minimum concentration at which micelles start to form. The CMC of Arg-esters was determined using a pyrene fluorescent method as described in a previous publication.[15] Methanol solution of pyrene (2 μM) was added to several vials (250 μL per vial) and evaporated overnight to leave thin dried films of pyrene. Aqueous solutions of Arg-esters were prepared in a wide concentration range and were added to individual vials containing pyrene films in a 500 μL volume. The samples were left stirring at 400 rpm, 37 °C. After 3 h, the fluorescence of each sample was measured at the excitation wavelength of 334 nm, and emissions were taken at 372 (I1) nm and 393 nm (I3). A graph was plotted between the fluorescent intensity ratio (I3/I1) and the log concentration of Arg-ester. Then, from the resulting curve for each Arg-ester, the “CMC value” was calculated. For the calculation of the CMC, the segmental linear regression method was used, and CMC values were obtained as the concentration corresponding to the intercept of the extrapolations of the first segment and the rapidly varying second segment of the I3/I1 versus log concentration plot. […]

[2] = test system: Enterococcus faecalis ATCC 19433; assay: disk diffusion method; assay type: cell-based; conditions: Enterococcus faecalis, ATCC19433, read-out: zones of inhibition
Protocol: (§1) Following bacterial strains were used for antimicrobial susceptibility testing: Escherichia coli ATCC 25922, Staphylococcus aureus ATCC 29213, Bacillus subtilis ATCC 6633, and Enterococcus faecalis ATCC 19433, which were obtained from the American Type Culture Collection (ATCC, Virginia, USA).
(§2) The disk diffusion method was used for the initial assessment of the antimicrobial activity of Arg-esters. Mueller Hinton agar (MHA, Biomerieux) medium was prepared according to the manufacturer protocol and poured into Petri dishes. All testing microorganisms were dissolved in saline and set to a 0.5 McFarland standard turbidity. This corresponds to a bacterial concentration of 1.5 × 10^8 colony-forming units per milliliter (CFU mL^–1). The bacterial suspension was then swabbed over solidified MHA Petri dishes ensuring homogeneous distribution. The test solutions of Arg-OL, Arg-DT, BAC, and cetrimide were prepared in water with 10% (v/v) DMSO at a concentration of 10 mg mL^–1. Water with 10% (v/v) DMSO was used as a negative control. The diffusion disks of about 6 mm in diameter were prepared from Whatman filter paper. After immersing disks in the above-prepared test solutions, they were placed on MHA plates already swabbed with different bacteria. After overnight incubation of Petri dishes at 37 °C, clear zones of bacterial growth inhibition around disks were measured.

[3] = test system: Bacillus subtilis ATCC 6633; assay: disk diffusion method; assay type: cell-based; conditions: Bacillus subtilis, ATCC6633, read-out: zones of inhibition
Protocol: as §1, §2

[4] = test system: Staphylococcus aureus ATCC 29213; assay: disk diffusion method; assay type: cell-based; conditions: Staphylococcus aureus, ATCC29213, read-out: zones of inhibition
Protocol: as §1, §2

[5] = test system: Escherichia coli ATCC 25922; assay: disk diffusion method; assay type: cell-based; conditions: Escherichia coli, ATCC25922, read-out: zones of inhibition
Protocol: as §1, §2

[6] = test system: lipase from porcine pancreas; assay: degradation of arginine esters by lipase (pH-stat titration); assay type: in vitro ADME; conditions: within 3 h, 1 mM ester, pH 6.8, 37 °C
Protocol: Lipase-catalyzed hydrolytic degradation of Arg-OL and Arg-DT esters was carried out using a previously described experimental setup.[16] Digestion medium consisted of 2 mM Tris buffer with 5 mM CaCl2 and 150 mM NaCl. The medium pH was adjusted to 6.8. Lipase solution was freshly prepared before the experiment as follows: 0.5 g of lipase was mixed for 10 min in 10 mL of digestion medium, followed by centrifugation at 12 000 rpm and 4 °C for 15 min. The supernatant was collected for the degradation test and ice-stored until use. For the degradation test, solutions of Arg-OL and Arg-DT were prepared in the concentration of 1 mM in digestion buffer, and the pH was adjusted to 6.8 using 0.5 M NaOH. Thereafter, 2 mL of lipase solution was added to 18 mL of the Arg-surfactant solution to initiate ester degradation under continuous stirring at 37 °C. The ester hydrolysis was reflected by monitoring the drop in pH due to the release of arginine and titrated to keep the pH at 6.8 with the addition of 0.5 M NaOH. The experiment was continued for 3 h. Back-titration was also performed at the end of the experiment by raising the pH to 9, and additional consumption of the NaOH volume reflected the nonionized form of an amino acid. […]

Caco-2 cell membrane = assay: fluorescence anisotropy (DPH), membrane fluidity; assay type: cell-based; conditions: DPH-labeled Caco-2 cells
Protocol: To evaluate membrane fluidity by fluorescence spectroscopy, a method described by Aricha et al. was adapted.[17] Caco-2 cells were labeled with fluorescent probe DPH (1,6-diphenyl-1,3,5-hexatriene). For this, a 1 mM solution of DPH was prepared in acetone. A Caco-2 cell monolayer in a 15 mL cell flask after washing with sterile PBS was trypsinized and resuspended in 10 mM HBS (pH 7.4) at a concentration of 2 × 10^5 cells mL^–1. Then a 1 mM DPH solution (10 μL) was added to a Caco-2 cell suspension (5 mL) and kept for incubation at 37 °C in the dark. After 1 h, cells were centrifuged at 588 rpm for 3 min, and solvent was removed to get rid of the free probe. Cells were resuspended in the same volume of HBS. Samples of Arg-surfactants were prepared in HBS in concentrations of 2000, 1000, and 500 μg mL^–1. Then each sample solution was mixed with a DPH-labeled cell suspension in equal volumes and incubated at room temperature in the dark. HBS mixed in an equal volume with the DPH-labeled cell suspension was used as a control. At specific time points, fluorescence polarization data were obtained using an excitation wavelength of 350 nm and an emission wavelength of 420 nm, and anisotropy was calculated using the following equation: [drawing 5] where I∥ and I⊥ are the fluorescence intensities parallel and perpendicular to the direction of the excitation light beam.

| Compound | critical micelle concentration (CMC) [1] [mM] | zone of inhibition at 10 µg/mL [2] [mm] | zone of inhibition at 10 µg/mL [3] [mm] | zone of inhibition at 10 µg/mL [4] [mm] | zone of inhibition at 10 µg/mL [5] [mm] | percentage of arginine ester cleaved by lipase [6] [%] | changes in anisotropy (Caco-2 cell membrane; < 1000 μg mL^–1) | decrease in the anisotropy value as compared to the control (Caco-2 cell membrane; within 2 h) [%] |
| --- | --- | --- | --- | --- | --- | --- | --- | --- |
| CCCCCCCCCCCCC(CCCCCCCCCC)COC(=O)[C@@H](N)CCCNC(=N)N.O=C(O)C(F)(F)F (some centres unmarked) [Arg-DT, 2-Decyltetradecyl Argininate Trifluoroacetate] | 0.013 | 16 | 18 | 16 | 9 | 85 | not significant | – |
| CCCCCCCCC=CCCCCCCCCOC(=O)[C@@H](N)CCCNC(=N)N.O=C(O)C(F)(F)F [Arg-OL, Octadec-9-en-1-yl Argininate Trifluoroacetate] | 0.52 | 18 | 16 | 19 | 9 | 93 | – | > 30 |

From paper PMC7467771, “Lipophilic Arginine Esters: The Gateway to Preservatives without Side Effects” (Molecular Pharmaceutics, 2020)
